According to article PMC10829512, “Transport of metformin metabolites by guanidinium exporters of the small multidrug resistance family” (The Journal of General Physiology, 2024):
“And” between values parts separate entries of the source, which are not always exact repeats. Equal entries are not always repeated. Where two headings read alike, the source gives them in different places.

Assays:
Gdx-Eco [1] = molecular target: T1, Gdx-Eco (Escherichia coli, UniProt P69937); test: SSM electrophysiology of Gdx-Eco proteoliposomes; type: biochemical; conditions: for Transport currents in substrate screen: 2 mM substrate; for Km: pH 7.5, mean ± SEM, read-out: Km determined using SSM electrophysiology
Description: (§1) Gdx-Clo ([Kermani et al., 2018]), Gdx-Eco ([Kermani et al., 2018]), EmrE ([Kermani et al., 2022]), and Gdx-pAmi ([Martinez-Vaz et al., 2022]) construct design and purification have been described previously. […] Proteins were overexpressed in C41(DE3). Expression was induced by the addition of 0.2 mM IPTG for 3 h. Cells were lysed and extracted with 2% n-decyl-β-D-maltoside (DM) for 2 h. After pelleting insoluble cell debris, proteins were purified using cobalt affinity resin. Wash buffer contained 25 mM Tris, pH 8.5, 150 mM NaCl, and 5 mM DM. For Gdx-pAmi, NaCl concentration was increased to 500 mM NaCl. The affinity column was washed with wash buffer, then wash buffer with 10 mM imidazole, prior to elution with wash buffer with 400 mM imidazole. For Gdx-Clo and Gdx-Eco, histidine tags were cleaved with LysC (200 ng/mg of protein; 2 h at room temperature; New England Biolabs), and for all others, histidine tags were cleaved with thrombin (1 U/mg of protein, overnight at room temperature; MilliporeSigma). Proteins were further purified using a gel filtration Superdex200 column (Cytiva) equilibrated with 100 mM NaCl, 10 mM N-2-hydroxyethylpiperazine-N′-2-ethanesulfonic acid (HEPES), pH 7.5, and 5 mM DM. Purified proteins were stored at 4°C for up to 5 days before detergent binding assays. To prepare proteoliposomes for electrophysiology assays, purified protein was mixed with E. coli polar lipid extract (10 mg/ml; Avanti Polar Lipids) solubilized with 35 mM 3-[(3-cholamidopropyl)dimethylammonio]-1-propanesulfonate (CHAPS) at a protein to lipid ratio of 40 μg SMR transporter: mg lipid (1:370 protein:lipid molar ratio) prior to detergent removal by dialysis. For preparations that included Fluc-Bpe, liposomes were reconstituted with a molar ratio of 0.3 Fluc-Bpe:1 SMRGdx: 5920 lipid (1 μg Fluc-Bpe and ∼2.5 μg SMRGdx per mg lipid). For liposome transport assays, proteoliposomes were prepared similarly, except that a 2:1 mixture of 1-palmitoyl, 2-oleoylphosphatidylethanolamine (POPE) and 1-palmitoyl, 2-oleoylphosphatidylglycerol (POPG) (10 mg/ml; Avanti Polar Lipids) was used with 0.2 μg protein/mg lipid. Proteoliposomes were stored at −80°C until use.
(§2) SSM experiments were performed using SURFE^2R N1 instrument (Nanion Technologies). Sensors were prepared with a 1,2-diphytanoyl-sn-glycero-3-phosphocholine (DPhPC) lipid monolayer according to published protocols ([Bazzone et al., 2017]). Each sensor’s capacitance and conductance were verified before use (<80 nF capacitance, <50 nS conductance) using Nanion software protocols. Proteoliposome stock was diluted 1:25 in assay buffer (100 mM KCl, 100 mM KPO4, pH 7.5) prior to adsorption to the DPhPC monolayer. For substrate screening experiments, reference substrate samples (Gdm^+ for SMRGdx, and TPA^+ for SMRQac) were checked periodically to test for the stability of the sensor; if the current amplitude of the reference compound differed by >10% on one sensor, it indicated the desorption of liposomes, and the sensor was not used for further experiments. For every SSM electrophysiology experiment, we used the same general solution exchange protocol: after 2 s perfusion with a non-activating solution, we perfused substrate-containing buffer for 2 s and then returned to the equilibrium condition with a 4 s perfusion of non-activating buffer. For experiments with the S104C/A70C crosslinked variant, reducing conditions were established by the addition of 2.5 mM tris(2-carboxyethyl)phosphine (TCEP) to the activating and non-activating buffers.
(§3) We screened a series of metformin metabolites for transport using SSM electrophysiology (Fig. 2, A and B).

Gdx-pAmi = test: SSM electrophysiology of Gdx-pAmi proteoliposomes; type: biochemical, Aminobacter sp. MET; conditions: for Transport currents in substrate screen: 2 mM substrate; for Km: pH 7.5, mean ± SEM, read-out: Km determined using SSM electrophysiology
Description: as §1, §2, §3

Gdx-Clo A70C/S104C = test: Tryptophan fluorescence binding to crosslinked variant; set-up: species or system Clostridales oral taxon 876; conditions: A70C/S104C under oxidizing conditions, read-out: Kd, fit to a single-site binding model
Description: Fluorescence emission spectra (λex = 280 nm, […]) were collected for 1 µM purified protein in assay buffer containing 200 mM NaCl, 10 mM HEPES, 10 mM bicine, 10 mM NaPO4, and 5 mM DM, with pH adjusted from 6.5 to 9.0. Substrate was added from a stock solution prepared in assay buffer. For Gdm^+ titrations, the change in fluorescence, F, as a function of substrate fit to a single site binding isotherm, ∆F=(Fmax[S]/Kd+[S]). (3)
For all SSM electrophysiology experiments, the shapes of the substrate-induced currents are characteristic of transport, rather than electrogenic presteady binding events. However, we sought to confirm this interpretation for at least one transporter/substrate pair. Using the structure of Gdx-Clo ([Kermani et al., 2020]), we introduced a pair of cysteines, A70C and S104C, that are within the crosslinking distance (∼6 Å) on the open side of the transporter, but that increase in distance when the transporter changes conformation. We expected that the formation of a crosslink would lock the transporter in one open conformation, impairing transport, with little effect on substrate binding (Fig. 2 C). […] Substrate exchange is restored in reducing conditions. […]

Gdx-Eco [2] = molecular target: T1, Gdx-Eco; set-up: method as in Kermani et al., 2018; Thomas et al., 2021; conditions: ref Kermani et al., 2018, Thomas et al., 2021; cited from earlier work

T1 sequence (P69937 whole entry): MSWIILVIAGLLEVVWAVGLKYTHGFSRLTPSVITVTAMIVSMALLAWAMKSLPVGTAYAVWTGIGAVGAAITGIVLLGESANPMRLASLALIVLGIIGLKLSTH

SMILES	Transport currents in substrate screen (Gdx-Eco [1])	Km (Gdx-Eco [1]) [mM]	Maximal velocity for Gdm+ relative to guanylurea (Gdx-Eco [1]; substrate at fivefold Km, normalized to Fluc-Bpe fluoride current)	Transport currents in substrate screen (Gdx-pAmi)	Km (Gdx-pAmi)	Turnover rate of Gdm+ relative to guanylurea (Gdx-pAmi; substrate at fivefold Km, normalized to Fluc-Bpe fluoride current and reconstitution efficiency)	Kd (Gdx-Clo A70C/S104C) [µM]	Proton coupling stoichiometry (Gdx-Eco [2])	Km (Gdx-pAmi; listed as guanylurea) [mM]
N=C(N)N [Gdm^+, guanidinium]	negative capacitive currents	1.7 ± 0.5	approximately twofold higher	negative capacitive currents	16 mM and 15.7 mM	comparable	560	2 H^+: 1 Gdm^+	–
N=C(N)NC(N)=O [Guanylurea, guanylurea]	negative capacitive currents	0.85 ± 0.1	–	negative capacitive currents	5.2 ± 2 mM	–	–	–	5
